What all share (format): physicochemical
Data set [1] can be described thus: Environmental stress (temperature / relative humidity), solid form by XRPD. On the procedure:
The mesophase treprostinil of FIG. 31 are formed, from top to bottom, from the following solutions: (1) 0.40 water activity slurry with acetone 2 days; (2) DCM slurry 60 to 30° C.; (3) 0.80 water activity slurry with isopropanol 7 days; (4) 1-propanol/water 1:1 v/v slurry ambient temperature; (5) Form B+A+mesophase 50° C. 7 days, (6) Acetonitrile slurry ambient temperature; (7) Form A 50° C. 15 hours; (8) Methanol/ethyl acetate evaporation; (9) Toluene crash precipitation from methyl ethyl ketone.
Solids were stressed in glass vials under various drying and relative humidity (RH) environments for specified times, generally monitoring weight change during stressing. Drying was done via ambient, P2O5, vacuum (ambient and elevated temperatures), and convection oven experiments, for which the only drying condition listed in the tables is the oven temperature. Ambient experiments were conducted by leaving samples exposed in a laboratory fume hood. Specific RH values were achieved by placing the sample inside sealed chambers containing saturated salt solutions or into separate chambers containing P2O5 powder for 0% RH. The salt solutions were selected and prepared based an ASTM standard procedure. For vacuum experiments, vials were covered with nylon filters to prevent potential solid loss. For the elevated temperature experiments, temperature was measured by a NIST-traceable thermometer. […]

The nature of data set [2]: Dynamic vapor sorption (DVS). The conditions noted are these: for DVS weight loss: 95 to 5% RH. How it is done: DVS data were collected on a VTI SGA-100 Vapor Sorption Analyzer. NaCl and PVP were used as calibration standards. Samples were not dried prior to analysis. Sorption and desorption data were collected over a range from 5 to 95% RH (or 55 to 95% RH for Form B) at 10% RH increments under a nitrogen purge. The equilibrium criterion used for analysis was less than 0.0100% weight change in 5 minutes with a maximum equilibration time of 3 hours. Data were not corrected for the initial moisture content of the samples.

The nature of data set [3]: TG-IR heating, post-TG-IR XRPD. The conditions noted are these: heated 25-97° C. On the procedure:
Thermogravimetric infrared (TG-IR) analysis was performed on a TA Instruments thermogravimetric (TG) analyzer model 2050 interfaced to a Magna-IR 560® Fourier transform infrared (IR) spectrophotometer (Thermo Nicolet) equipped with an Ever-Glo mid/far IR source, a potassium bromide (KBr) beamsplitter, and a mercury cadmium telluride (MCT-A) detector. The IR wavelength verification was performed using polystyrene, and the TG calibration standards were nickel and Alumel™. The sample was placed in a platinum sample pan, and the pan was inserted into the TG furnace. The TG instrument was started first, immediately followed by the FT-IR instrument. The TG instrument was operated under a flow of helium at 90 and 10 cc/min for the purge and balance, respectively. The furnace was heated under helium at a rate of 20° C./minute to a final temperature of 97° C. IR spectra were collected approximately every 16 seconds for approximately 13 minutes. Each IR spectrum represents 16 co-added scans collected at a spectral resolution of 4 cm^−1. Volatiles were identified from a search of the High Resolution Nicolet Vapor Phase spectral library (v. 1990-1994).

Data set [4] in a line: Stability tests of anhydrous treprostinil on standing. On the procedure:
An anhydrous form of treprostinil has been previously described, e.g., in J. Org. Chem. 2004, 69, 1890-1902. The anhydrous form is not stable at room temperature. […] A larger amount of dimers can form at higher temperatures. However, dimer formation is negligible at 5° C. Therefore, anhydrous treprostinil must be refrigerated for storage and transport. In the past, anhydrous treprostinil had to be refrigerated and shipped with ice packs to maintain low (2° C.-8° C.) temperatures.

As to `CCCCC[C@H](O)CC[C@@H]1[C@H]2Cc3cccc(OCC(=O)O)c3C[C@H]2C[C@H]1O` [Mesophase treprostinil, 2-((1R,2R,3aS,9aS)-2-hydroxy-1-((S)-3-hydroxyoctyl)-2,3,3a,4,9,9a-hexahydro-1H-cyclopenta[b]naphthalen-5-yloxy)acetic acid], the “Solid form after stress (XRPD)” value in data set [1] (97% RH 12 days) is “mesophase+weak Form B”.
In the case of `CCCCC[C@H](O)CC[C@@H]1[C@H]2Cc3cccc(OCC(=O)O)c3C[C@H]2C[C@H]1O` [Treprostinil Form C, 2-((1R,2R,3aS,9aS)-2-hydroxy-1-((S)-3-hydroxyoctyl)-2,3,3a,4,9,9a-hexahydro-1H-cyclopenta[b]naphthalen-5-yloxy)acetic acid], the DVS weight gain in data set [2] (5 to 75% RH) is 0.2% weight gain 5 to 75% RH; in data set [2] (75 to 95% RH), 4.6% weight gain 75 to 95% RH. For the same compound, the DVS weight loss in data set [2] is 0.5% weight loss 95 to 5% RH. Further, the “post-DVS XRPD (solid form after DVS)” value in data set [2] (after sorption/desorption cycle) is “B + A”. Also, the “DVS weight loss upon equilibration” value in data set [2] (equilibration at 5% RH) is 0.1% weight loss upon equilibration at 5% RH.
As to `CCCCC[C@H](O)CC[C@@H]1[C@H]2Cc3cccc(OCC(=O)O)c3C[C@H]2C[C@H]1O` [Treprostinil monohydrate Form A, 2-((1R,2R,3aS,9aS)-2-hydroxy-1-((S)-3-hydroxyoctyl)-2,3,3a,4,9,9a-hexahydro-1H-cyclopenta[b]naphthalen-5-yloxy)acetic acid], the “Post-TG-IR XRPD (solid form after heating)” value in data set [3] is recorded as “mesophase”. Moreover, in data set [1] (50° C. 15 hours), the “Solid form after stress (XRPD)” value is reported as “mesophase”. Also, the DVS weight gain in data set [2] (5 to 95% RH) is on record as 0.7% weight gain 5 to 95% RH. Moreover, in data set [2], the DVS weight loss is listed as 0.6% weight loss 95 to 5% RH.
For `CCCCC[C@H](O)CC[C@@H]1[C@H]2Cc3cccc(OCC(=O)O)c3C[C@H]2C[C@H]1O` [Treprostinil monohydrate Form B, 2-((1R,2R,3aS,9aS)-2-hydroxy-1-((S)-3-hydroxyoctyl)-2,3,3a,4,9,9a-hexahydro-1H-cyclopenta[b]naphthalen-5-yloxy)acetic acid], in data set [2] (55 to 95% RH), the DVS weight gain is given as 0.4% weight gain 55 to 95% RH. Besides, the DVS weight loss in data set [2] is listed as 0.6% weight loss 95 to 5% RH. Moreover, the “DVS weight gain upon equilibration” value in data set [2] (equilibration at 55% RH) is on record as 0.3% weight gain upon equilibration at 55% RH.
With `CCCCC[C@H](O)CC[C@@H]1[C@H]2Cc3cccc(OCC(=O)O)c3C[C@H]2C[C@H]1O` [anhydrous treprostinil, 2-((1R,2R,3aS,9aS)-2-hydroxy-1-((S)-3-hydroxyoctyl)-2,3,3a,4,9,9a-hexahydro-1H-cyclopenta[b]naphthalen-5-yloxy)acetic acid], the Dimer formation entry in data set [4] (5° C.) is reported as “negligible”. Besides, in data set [4] (25° C., dimers formed upon standing), the Stability result is “not stable”.

These data come from patent US10167247B2, “Solid forms of treprostinil” (United Therapeutics Corporation, priority 2013, dated 2019).
